The values that follow come from patent publication US8530467B2, “Benzoimidazole compounds and uses thereof” (Neomed Institute, priority 2009, dated 2013).

What all share (type): cell-based
In assay [1] the target is T1, hP2X3 (human Purinergic P2X receptors subtype 3) (Homo sapiens, UniProt P56373).
T1 construct: expressed in transfected cells
T1 sequence (P56373 1-397): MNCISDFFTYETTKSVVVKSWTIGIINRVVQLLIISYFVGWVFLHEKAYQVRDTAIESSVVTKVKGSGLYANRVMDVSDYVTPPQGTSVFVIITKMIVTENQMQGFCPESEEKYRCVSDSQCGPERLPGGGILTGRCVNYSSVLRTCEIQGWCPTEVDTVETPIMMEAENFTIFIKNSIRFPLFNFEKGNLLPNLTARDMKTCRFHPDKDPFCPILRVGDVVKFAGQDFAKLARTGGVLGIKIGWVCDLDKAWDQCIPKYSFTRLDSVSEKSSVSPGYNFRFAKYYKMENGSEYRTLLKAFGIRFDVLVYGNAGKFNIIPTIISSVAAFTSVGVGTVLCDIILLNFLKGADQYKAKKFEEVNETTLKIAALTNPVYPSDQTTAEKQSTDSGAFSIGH
Description: Fluo-4 calcium mobilization assay on FDSS7000, ATP as agonist (Method 1). To be noted: RLE cells stably expressing hP2X3; 2 uM ATP; 20 min preincubation; read-out: Human P2X3 IC50 (μM) Method 1. As for the experimental part:
(§1) The antagonist properties of compounds in the present invention were assayed as inhibitors of intracellular calcium increase induced by activation of hP2X3 (human Purinergic P2X receptors subtype 3, accession number AB016608 for clone A and accession number NM_002559 for clone B), expressed in RLE cells (rat liver […], ATCC. The RLE/hP2X3 cells were grown in William's medium 1× (Gibco, 12551-032), supplemented with 10% Fetal bovine serum (Wisent, 090850), 2 mM L-Glutamine (Wisent, 609-065-EL), and 600 μg/mL Geneticin G-418 (Wisent, 61234) in a humidified incubator (5% CO2 and 37° C.).
(§2) In one assay, Fluo-4 assay on FDSS7000 (Hamamatsu) was performed using cryopreserved RLE cells stably expressing hP2X3 plated in 384 well plates, 24 hr before the experiment at a density appropriate for obtaining the desired final confluence. After processing the cell plates with Fluo-4 and performing a subsequent incubation followed by washing steps, a double addition was carried out. The first addition included the test compounds diluted in HBSS buffer containing 2 mM CaCl2 preincubated for 20 min before a second addition. The second addition included 2 uM of ATP. Calcium mobilization was measured with the FDSS7000 over a time lapse of 3 min, and fluorescent counts were exported for analysis. […] Hill coefficients and % inhibitions can also be determined.
On the technique in general: Calcium assays in cells follow changes in intracellular calcium, usually with a dye or a luminescent sensor.

Assay [2] addresses T1, hP2X3 (human Purinergic P2X receptors subtype 3). Description: Fluo-4 calcium mobilization assay, α,β methylene-ATP as agonist (Method 2). The following applies: RLE cells stably expressing hP2X3; α,β methylene-ATP instead of ATP; read-out: Human P2X3 IC50 (μM) Method 2. Here is the method: as §1
as §2, with “The second addition included 2 uM of ATP.” left out, “determined. […]” for “determined.”

Assay [3] has the same target. Description: FLIPR FLUO-4 AM calcium assay, α,β-methylene-ATP as agonist (Method 3). To be noted: hP2X3-expressing RLE cells, 500 nM α,β-methylene-ATP, read-out: Human P2X3 IC50 (μM) Method 3. Here is the method:
as §1
In a third assay, hP2X3-expressing cells were maintained in culture and the day before the experiment, the cells were plated in 384-black polylysine coated plates (Becton/Dickinson, 356663) at 8000 cells/well in 50 μL/well in William's medium without Geneticin, and then placed in an incubator for 24 hr. On the day of the experiment, the cells and test compounds were prepared as follows. […] Experiments were initiated by measuring a baseline fluorescence reading for 10 sec, followed by adding 12.5 μL of compounds and data sampling for a total 280 seconds. […] During entire experiment, fluorescence emission was read by the FLIPR on board CCD camera using filter with emission wavelength of 520-545 nm. […] Hill coefficients and % inhibitions can also be determined.

For `CNC(=O)c1cc(F)c(-c2nc3cc(C)ccc3n2C[C@H]2CN(C(=O)OC)CCO2)c(F)c1` [Example 3, (S)-methyl 2-((2-(2,6-difluoro-4-(methylcarbamoyl)phenyl)-5-methyl-1H-benzo[d]imidazol-1-yl)methyl)morpholine-4-carboxylate], the half-inhibitory concentration (IC50) in assay [1] came out at 0.007 µM; in assay [2] it was 0.014 µM; in assay [3], 0.016 µM.

Regarding `CNC(=O)c1cc(F)c(-c2nc3cc(C)ccc3n2C[C@@H]2CN(C(=O)OC)CCO2)c(F)c1` [Example 5, (R)-methyl 2-((2-(2,6-difluoro-4-(methylcarbamoyl)phenyl)-5-methyl-1H-benzo[d]imidazol-1-yl)methyl)morpholine-4-carboxylate], in assay [3], the IC50 turned out to be 0.016 µM.

In general, IC50 refers to the midpoint of a concentration-inhibition curve.
